Laboratory results from article PMC10223356, “Tetrasubstituted Pyrrole Derivative Mimetics of Protein–Protein Interaction Hot-Spot Residues: A Promising Class of Anticancer Agents Targeting Melanoma Cells” (Molecules, 2023).
In brackets after ≈: the same amount, converted by molar mass.

Key:
[1] = Solubility assay in PBS by UV light scattering (precipitation point); assay type: physicochemical; conditions: for solubility at 1 min: PBS (phosphate-buffered saline), aqueous buffer, kinetic from dmso stock, PBS solution pH = 7.4, 37 °C, mean ± SEM (n = 3); for Volume of DMSO solution added to PBS at the precipitation point: DMSO solution 2.6 mM added to 1400 µL PBS
Procedure: The solubility of all compounds was evaluated in a PBS solution (phosphate-buffered saline; Sigma-Aldrich, Merck KGaA, Darmstadt, Germany, pH = 7.4) by means of UV spectroscopy.
For each compound, the precipitation point was quantified measuring the increasing of the UV absorption of PBS in the range of 600–800 nm after successive additions of aliquots of a DMSO solution at specific concentration. Because of the absence of bands in the selected UV region, the increase in absorption is due to light scattering caused by the formation of particulate in the PBS. UV absorption data were graphically reported vs. μL of the added DMSO solution (x-axis), and the precipitation point was identified as the intersect point of the bilinear fitted curve. The x coordinate of the intersect point corresponded to the microlitres of DMSO added to PBS (1.4 mL) when the precipitation occurred, from which the concentration of the molecule in PBS at the precipitation point is readily calculated.
The solubility of each molecule in PBS was quantified measuring the UV scattering in the range of 600–800 nm (JASCO UV-530 spectrophotometer, equipped with ETC-505 T temperature controller). DMSO solutions of 1, 9a, 9b, 9c, 9d, 9e, 9f, ±10b, and nutlin-3a were used at a final concentration of 2.6 mM, whereas those of 9g, 9h, and 9i were used at 1.0 mM. A total of 1400 µL of degassed PBS was placed in a quartz cuvette (o.l. 0.5 cm), equilibrated 5 min at 37 °C, and then titrated by 7–10 successive additions of 0.5 µL or 0.3 µL from the DMSO solution. Each titration was performed without removing the cuvette from the UV cell and, after each addition, the solution was equilibrated 1 min a 37 °C under gently stirring before the acquisition of the UV data. For each molecule, the solubility was expressed as the mean ± SEM (n = 3).

[2] = test system: human epithelial melanoma A375 cells; assay: Cell survival index (MTT + cell count) bioscreen, A375; assay type: cell-based; conditions: for IC50: A-375, human melanoma cell line, 48 h of incubation, cell survival index, mean ± SEM (n = 30); for SI (selectivity index): SI = IC50 L6/IC50 A375
Procedure: (§1) Cell growth inhibition activity of compounds 1, 9a–i, 10a,b, and the positive control nutlin-3a was evaluated following 48 h of incubation with increasing concentrations of the compounds (from 1.5 to 25 µM) in human cancer (A375 and HCT-116) and healthy (L6) cell lines. […] The evaluation of the “cell survival index” show a typical concentration-dependent sigmoid trend, achieving IC50 values in the low micromolar range (Figure S2).
(§2) Human epithelial melanoma A375 cells, human colorectal carcinoma HCT-116 cells, and normal rat L6 myoblast were grown in DMEM (Invitrogen, Paisley, UK) supplemented with 10% fetal bovine serum (FBS, Cambrex, Verviers, Belgium), L-glutamine (2 mM, Sigma, Milan, Italy), penicillin (100 units/mL, Sigma), and streptomycin (100 μg/mL, Sigma) and cultured in a humidified 5% carbon dioxide atmosphere at 37 °C, according to ATCC recommendations. A375 and HCT-116 were used as preclinical human cancer models in vitro, while rat L6 were used as control healthy cells.
(§3) The antiproliferative activity of 1, 9a–i, and 10a,b was investigated through the estimation of a “cell survival index”, arising from the combination of cell viability evaluation with cell counting, as previously reported. The cell survival index is calculated as the arithmetic mean between the percentage values derived from the MTT assay and the automated cell count. Cells were inoculated in 96-microwell culture plates at a density of 10^4 cells/well and allowed to grow for 24 h. The medium was then replaced with fresh medium and cells were treated for an additional 48 h with a range of concentrations (from 1.5 to 25 μM) of 1, 9a–i, and 10a,b. Using the same experimental procedure, cell cultures were also incubated with DMSO as negative controls (vehicle), as well as with cisplatin (cDDP) and nutlin-3a as positive controls for cytotoxic and antiproliferative effects, respectively. Cell viability was evaluated using the MTT assay procedure. Cell number was determined by TC20 automated cell counter (Bio-Rad, Milan, Italy), providing an accurate and reproducible total count of cells and a live/dead ratio in one step by a specific dye (trypan blue) exclusion assay. The calculation of the concentration required to inhibit the net increase in the cell number and viability by 50% (IC50) is based on plots of data (n = 6 for each experiment) and repeated five times (total n = 30). IC50 values were calculated from a dose–response curve by nonlinear regression using a curve-fitting program, GraphPad Prism 5.0, and are expressed as mean values ± SEM (n = 30) of five independent experiments.

normal rat L6 myoblast = assay: Cell survival index (MTT + cell count) bioscreen, L6; assay type: cell-based; conditions: healthy rat myoblast cell line, 48 h of incubation, mean ± SEM (n = 30), read-out: L6 IC50
Procedure: as §1, §2, §3

[3] = test system: human colorectal carcinoma HCT-116 cells; assay: Cell survival index (MTT + cell count) bioscreen, HCT-116; assay type: cell-based; conditions: HCT-116, 48 h, human colon cancer cell line, 48 h of incubation, mean ± SEM (n = 30)
Procedure: as §1, §2, §3

[4] = test system: human A375 melanoma cells; assay: Apoptosis/Necrosis detection by fluorescence microscopy; assay type: cell-based; conditions: A375 cells incubated with IC50 concentrations
Source text: In order to confirm the possible activation of apoptosis, we performed fluorescence experiments to simultaneously monitor apoptotic and/or necrotic cells as well as deepen the biological effects on A375 triggered by exposure to the most bioactive derivatives under investigation (Figure 5).
Indeed, in apoptosis, PS is transferred to the outer leaflet of the plasma membrane. As a general indicator of the initial/intermediate stages of programmed cell death, the PS appearance on the cell surface can be detected as an apoptotic hallmark. Even in this circumstance, the results are very similar to those obtained with nutlin-3a.
The evaluation of apoptosis and/or necrosis induction after treatments in vitro was investigated by using the Apoptosis/Necrosis Detection kit (ab176749, Abcam, Discovery Drive, Cambridge Biomedical Campus, Cambridge, UK), which is optimized to simultaneously detect cell apoptosis (green), necrosis (red), and healthy cells (blue) by fluorescence microscopy analysis. […] As a universal indicator of the initial/intermediates stages of cell apoptosis, the appearance of PS on the cell surface can be detected before cytomorphological changes are observed. Thus, the phosphatidylserine (PS) early apoptotic sensor has green fluorescence (Ex/Em = 490/525 nm) upon binding to membrane PS. […]

[5] = design: method as in PMID 23879262; conditions: 20 mM of PBS (pH = 7.4) containing 150 mM of KCl; cited from earlier work

Row | Compound | solubility at 1 min [1] [µM] | Solubility fold higher than that of 1 ([1]; PBS pH 7.4, ratio of DMSO solution volumes at the precipitation points) [fold] | IC50 [2] [µM] | SI (selectivity index) [2] | CC50 (normal rat L6 myoblast) [µM] | IC50 [3] [µM] | Activation of apoptosis (phosphatidylserine sensor, green fluorescence) [4] | Volume of DMSO solution added to PBS at the precipitation point [1] | Solubility [5] [µM]
1 | Cc1c(C(=O)c2ccccc2)cc(C(=O)NCc2cccc(Cl)c2)n1Cc1ccc(N)cc1 [compound 10a, 1-(4-aminobenzyl)-4-benzoyl-N-(3-chlorobenzyl)-5-methyl-1H-pyrrole-2-carboxamide] | 10.5 ± 0.1 (≈ 4.81 µg/mL) | 2.8 | 10 ± 4 | 5.6 | 55 ± 7 | 41.3 ± 6 | consistent activation of apoptosis |  | 
2 | Cc1c(C(=O)c2ccccc2)cc(C(=O)NCc2cccc(Cl)c2)n1Cc1ccc(F)cc1 [compound 9c, 4-Benzoyl-N-(3-chlorobenzyl)-1-(4-fluorobenzyl)-5-methyl-1H-pyrrole-2-carboxamide] | 3.9 ± 0.2 (≈ 1.8 µg/mL) |  | 13 ± 4 | 2.7 | 35 ± 4 | 55.9 ± 7 | consistent activation of apoptosis | 2,1 µL | 
3 | Cc1ccc(Cn2c(C(=O)NCc3cccc(Cl)c3)cc(C(=O)c3ccccc3)c2C)cc1 [compound 1, 4-benzoyl-N-[(3-chlorophenyl)methyl]-5-methyl-1-[(4-methylphenyl)methyl]-1H-pyrrole-2-carboxamide] | 3.5 ± 0.1 (≈ 1.6 µg/mL) |  | 20 ± 4 | 2.1 | 42 ± 3 | 41.4 ± 6 |  |  | ≤ 6.8
4 | Cc1ccc(Cn2c(C(=O)NCc3ccc(Cl)cc3)cc(C(=O)c3ccccc3)c2C)cc1 [compound 9d, 4-Benzoyl-N-(4-chlorobenzyl)-5-methyl-1-(4-methylbenzyl)-1H-pyrrole-2-carboxamide] | 3.1 ± 0.2 (≈ 1.42 µg/mL) |  | 15 ± 5 | 1.7 | 25 ± 6 | 35.4 ± 6 |  | 1,67 µL | 
